In US7943651B2, “Compounds” (Glaxo Group Limited, priority 2006, dated 2011):

system: NFkB activity; experiment: Glucocorticoid Mediated Transrepression of NFkB Activity; assay type: cell-based; details: Human A549 lung epithelial cells, NFkB dependent ELAM promoter alkaline phosphatase reporter, 3 ng/ml TNFα
Description: Glucocorticoid Mediated Transrepression of NFkB Activity
Human A549 lung epithelial cells were engineered to contain a secreted placental alkaline phosphatase gene under the control of the distal region of the NFkB dependent ELAM promoter as previously described in Ray, K. P., Farrow, S., Daly, M., Talabot, F. and Searle, N. “Induction of the E-selectin promoter by interleukin 1 and tumour necrosis factor alpha, and inhibition by glucocorticoids” Biochemical Journal (1997) 328: 707-15.
Compounds were solvated and diluted in DMSO, and transferred directly into assay plates such that the final concentration of DMSO was 0.7%. Following the addition of cells (40K per well), plates were incubated for 1 hr prior to the addition of 3 ng/ml human recombinant TNFα. Following continued incubation for 16 hr, alkaline phosphatase activity was determined by measuring the change in optical density at 405 nm with time following the addition of 0.7 volumes of assay buffer (1 mg/ml p-nitrophenylphosphate dissolved in 1M diethanolamine, 0.28M NaCl, 0.5 mM MgCl2). Dose response curves were constructed from which EC50 values were estimated.

Row | SMILES | EC50
1 | COc1ccc(F)cc1C(C)(C)CC(O)(CNc1cc(C)cc2c1cnn2-c1cccc(C(=O)N[C@H](C)C(N)=O)c1)C(F)(F)F (mixture of isomers) [Example 3, N-[(1R)-2-Amino-1-methyl-2-oxoethyl]-3-(4-{[4-[5-fluoro-2-(methyloxy)phenyl]-2-hydroxy-4-methyl-2-(trifluoromethyl)pentyl]amino}-6-methyl-1H-indazol-1-yl)benzamide] | < 3.16 nM
2 | COc1ccc(F)cc1C(C)(C)CC(O)(CNc1cc(C)cc2c1cnn2-c1cccc(C(=O)N2CCC[C@@H]2C(N)=O)c1)C(F)(F)F (mixture of isomers) [Example 7, 1-{[3-(4-{[4-[5-Fluoro-2-(methyloxy)phenyl]-2-hydroxy-4-methyl-2-(trifluoromethyl)pentyl]amino}-6-methyl-1H-indazol-1-yl)phenyl]carbonyl}-D-prolinamide] | < 3.16 nM
3 | COc1ccc(F)cc1C(C)(C)CC(O)(CNc1cc(C)cc2c1cnn2-c1cccc(C(=O)NCC(N)=O)c1)C(F)(F)F (racemic) [Example 1, N-(2-Amino-2-oxoethyl)-3-(4-{[4-[5-fluoro-2-(methyloxy)phenyl]-2-hydroxy-4-methyl-2-(trifluoromethyl)pentyl]amino}-6-methyl-1H-indazol-1-yl)benzamide] | < 3.16 nM
4 | COc1ccc(F)cc1C(C)(C)CC(O)(CNc1cc(C)cc2c1cnn2-c1cccc(C(=O)N(C)CC(N)=O)c1)C(F)(F)F (racemic) [Example 2, N-(2-Amino-2-oxoethyl)-3-(4-{[4-[5-fluoro-2-(methyloxy)phenyl]-2-hydroxy-4-methyl-2-(trifluoromethyl)pentyl]amino}-6-methyl-1H-indazol-1-yl)-N-methylbenzamide] | < 3.16 nM
5 | COc1ccc(F)cc1C(C)(C)CC(O)(CNc1cc(C)cc2c1cnn2-c1cccc(C(=O)NC(C)(C)C(N)=O)c1)C(F)(F)F (racemic) [Example 5, N-(2-Amino-1,1-dimethyl-2-oxoethyl)-3-(4-{[4-[5-fluoro-2-(methyloxy)phenyl]-2-hydroxy-4-methyl-2-(trifluoromethyl)pentyl]amino}-6-methyl-1H-indazol-1-yl)benzamide] | < 3.16 nM
6 | COc1ccc(F)cc1C(C)(C)CC(O)(CNc1cc(C)cc2c1cnn2-c1cccc(C(=O)NCC(N)=O)c1)C(F)(F)F (single isomer, unassigned) [Example 1-A, N-(2-amino-2-oxoethyl)-3-(4-{[4-[5-fluoro-2-(methyloxy)phenyl]-2-hydroxy-4-methyl-2-(trifluoromethyl)pentyl]amino}-6-methyl-1H-indazol-1-yl)benzamide] | < 3.16 nM
7 | COc1ccc(F)cc1C(C)(C)CC(O)(CNc1cc(C)cc2c1cnn2-c1cccc(C(=O)N(C)CC(N)=O)c1)C(F)(F)F (single isomer, unassigned) [Example 2-A, N-(2-amino-2-oxoethyl)-3-(4-{[4-[5-fluoro-2-(methyloxy)phenyl]-2-hydroxy-4-methyl-2-(trifluoromethyl)pentyl]amino}-6-methyl-1H-indazol-1-yl)-N-methylbenzamide] | < 3.16 nM
8 | COc1ccc(F)cc1C(C)(C)CC(O)(CNc1cc(C)cc2c1cnn2-c1cccc(C(=O)N[C@H](C)C(N)=O)c1)C(F)(F)F (single isomer, unassigned) [Example 3-A] | < 3.16 nM
9 | COc1ccc(F)cc1C(C)(C)CC(O)(CNc1cc(C)cc2c1cnn2-c1cccc(C(=O)NC(C)(C)C(N)=O)c1)C(F)(F)F (single isomer, unassigned) [Example 5-A, N-(2-amino-1,1-dimethyl-2-oxoethyl)-3-(4-{[4-[5-fluoro-2-(methyloxy)phenyl]-2-hydroxy-4-methyl-2-(trifluoromethyl)pentyl]amino}-6-methyl-1H-indazol-1-yl)benzamide] | < 3.16 nM
10 | COc1ccc(F)cc1C(C)(C)C[C@@](O)(CNc1cc(C)cc2c1cnn2-c1cccc(C(=O)N2CCC[C@@H]2C(N)=O)c1)C(F)(F)F (single isomer, unassigned) [Example 7-A] | < 3.16 nM
11 | COc1ccc(F)cc1C(C)(C)CC(O)(CNc1cc(C)cc2c1cnn2-c1cccc(C(=O)N[C@@H](C)C(N)=O)c1)C(F)(F)F (stereo partly drawn) [Example 4, N-[(1S)-2-Amino-1-methyl-2-oxoethyl]-3-(4-{[4-[5-fluoro-2-(methyloxy)phenyl]-2-hydroxy-4-methyl-2-(trifluoromethyl)pentyl]amino}-6-methyl-1H-indazol-1-yl)benzamide] | < 3.16 nM
12 | COc1ccc(F)cc1C(C)(C)CC(O)(CNc1cc(C)cc2c1cnn2-c1cccc(C(=O)N2CCC[C@H]2C(N)=O)c1)C(F)(F)F (stereo partly drawn) [Example 6, 1-{[3-(4-{[4-[5-Fluoro-2-(methyloxy)phenyl]-2-hydroxy-4-methyl-2-(trifluoromethyl)pentyl]amino}-6-methyl-1H-indazol-1-yl)phenyl]carbonyl}-L-prolinamide] | < 3.16 nM
13 | COc1ccc(F)cc1C(C)(C)CC(O)(CNc1cc(C)cc2c1cnn2-c1cccc(C(=O)N[C@@H](CO)C(N)=O)c1)C(F)(F)F (stereo partly drawn) [Example 8, N-[(1S)-2-Amino-1-(hydroxymethyl)-2-oxoethyl]-3-(4-{[4-[5-fluoro-2-(methloxy)phenyl]-2-hydroxy-4-methyl-2-(trifluoromethyl)pentyl]amino}-6-methyl-1H-indazol-1-yl)benzamide] | < 3.16 nM
14 | Cc1cc(NCC(O)(CC(C)(C)c2cc(F)ccc2O)C(F)(F)F)c2cnn(-c3cccc(C(=O)N(C)CC(N)=O)c3)c2c1 (stereo not shown) [Example 9, N-(2-Amino-2-oxoethyl)-3-(4-{[4-(5-fluoro-2-hydroxyphenyl)-2-hydroxy-4-methyl-2-(trifluoromethyl)pentyl]amino}-6-methyl-1H-indazol-1-yl)-N-methylbenzamide] | < 3.16 nM
15 | Cc1cc(NCC(O)(CC(C)(C)c2cc(F)ccc2O)C(F)(F)F)c2cnn(-c3cccc(C(=O)NCC(N)=O)c3)c2c1 (stereo not shown) [Example 10, N-(2-Amino-2-oxoethyl)-3-(4-{[4-(5-fluoro-2-hydroxyphenyl)-2-hydroxy-4-methyl-2-(trifluoromethyl)pentyl]amino}-6-methyl-1H-indazol-1-yl)benzamide] | < 3.16 nM
16 | Cc1cc(NCC(O)(CC(C)(C)c2cc(F)ccc2O)C(F)(F)F)c2cnn(-c3cccc(C(=O)N[C@H](C)C(N)=O)c3)c2c1 (stereo partly drawn) [Example 11, N-[(1R)-2-Amino-1-methyl-2-oxoethyl]-3-(4-{[4-(5-fluoro-2-hydroxyphenyl)-2-hydroxy-4-methyl-2-(trifluoromethyl)pentyl]amino}-6-methyl-1H-indazol-1-yl)benzamide] | < 3.16 nM
17 | Cc1cc(NCC(O)(CC(C)(C)c2cc(F)ccc2O)C(F)(F)F)c2cnn(-c3cccc(C(=O)N4CCC[C@@H]4C(N)=O)c3)c2c1 (stereo partly drawn) [Example 12, 1-{[3-(4-{[4-(5-Fluoro-2-hydroxyphenyl)-2-hydroxy-4-methyl-2-(trifluoromethyl)pentyl]amino}-6-methyl-1H-indazol-1-yl)phenyl]carbonyl}-D-prolinamide] | < 3.16 nM
18 | CNC(=O)CNC(=O)c1cccc(-n2ncc3c(NCC(O)(CC(C)(C)c4cc(F)ccc4OC)C(F)(F)F)cc(C)cc32)c1 (stereo not shown) [Example 13, 3-(4-{[4-[5-Fluoro-2-(methyloxy)phenyl]-2-hydroxy-4-methyl-2-(trifluoromethyl)pentyl]amino}-6-methyl-1H-indazol-1-yl)-N-[2-(methylamino)-2-oxoethyl]benzamide] | < 3.16 nM
19 | COc1ccc(F)cc1C(C)(C)CC(O)(CNc1cc(C)cc2c1cnn2-c1cccc(C(=O)N(C)[C@@H](C)C(N)=O)c1)C(F)(F)F (stereo partly drawn) [Example 14, N-[(1S)-2-Amino-1-methyl-2-oxoethyl]-3-(4-{[4-[5-fluoro-2-(methloxy)phenyl]-2-hydroxy-4-methyl-2-(trifluoromethyl)pentyl]amino}-6-methyl-1H-indazol-1-yl)-N-methylbenzamide] | < 3.16 nM
20 | COc1ccc(F)cc1C(C)(C)CC(O)(CNc1cc(C)cc2c1cnn2-c1cccc(C(=O)N(C)[C@H](C)C(N)=O)c1)C(F)(F)F (stereo partly drawn) [Example 15, N-[(1R)-2-Amino-1-methyl-2-oxoethyl]-3-(4-{[4-[5-fluoro-2-(methloxy)phenyl]-2-hydroxy-4-methyl-2-(trifluoromethyl)-pentyl]amino}-6-methyl-1H-indazol-1-yl)-N-methylbenzamide] | < 3.16 nM
21 | COc1ccc(F)cc1C(C)(C)CC(O)(CNc1cc(C)cc2c1cnn2-c1cccc(C(=O)N[C@H](CO)C(N)=O)c1)C(F)(F)F (stereo partly drawn) [Example 16, N-[(1R)-2-Amino-1-(hydroxymethyl)-2-oxoethyl]-3-(4-{[4-[5-fluoro-2-(methloxy)phenyl]-2-hydroxy-4-methyl-2-(trifluoromethyl)pentyl]amino}-6-methyl-1H-indazol-1-yl)benzamide] | < 3.16 nM
22 | Cc1cc(NC[C@](O)(CC(C)(C)c2cc(F)ccc2O)C(F)(F)F)c2cnn(-c3cccc(C(=O)N4CCC[C@@H]4C(N)=O)c3)c2c1 [Example 17, 1-{[3-(4-{[(2R)-4-(5-Fluoro-2-hydroxyphenyl)-2-hydroxy-4-methyl-2-(trifluoromethyl)pentyl]amino}-6-methyl-1H-indazol-1-yl)phenyl]carbonyl}-D-prolinamide] | < 3.16 nM
